Source: patent US8710043B2, “TRPM8 antagonists and their use in treatments” (Amgen Inc., priority 2011, dated 2014)

Biological target: T1, human TRPM8 (Homo sapiens, UniProt Q7Z2W7)
T1 construct: expressed in transfected cells; host or cells: Chinese hamster ovary (CHO) cells, T-REx tetracycline-inducible system, co-transfected with aequorin
Experiment: Luminescence readout assay for measuring intracellular calcium, icilin activation
Type: cell-based
Conditions: CHO cells expressing human TRPM8, aequorin luminescence, 1 μM icilin activation; read-out: hTRPM8 IC50
In short: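 The read-out was luminescence reporting intracellular calcium, recorded by a CCD-based luminometer. Compounds were preincubated for 2.5 min before agonist challenge with 1 μM icilin. Human TRPM8 was expressed in a stable T-REx CHO line, induced with 0.5 μg/mL tetracycline the day before.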

T1 sequence (Q7Z2W7 whole entry): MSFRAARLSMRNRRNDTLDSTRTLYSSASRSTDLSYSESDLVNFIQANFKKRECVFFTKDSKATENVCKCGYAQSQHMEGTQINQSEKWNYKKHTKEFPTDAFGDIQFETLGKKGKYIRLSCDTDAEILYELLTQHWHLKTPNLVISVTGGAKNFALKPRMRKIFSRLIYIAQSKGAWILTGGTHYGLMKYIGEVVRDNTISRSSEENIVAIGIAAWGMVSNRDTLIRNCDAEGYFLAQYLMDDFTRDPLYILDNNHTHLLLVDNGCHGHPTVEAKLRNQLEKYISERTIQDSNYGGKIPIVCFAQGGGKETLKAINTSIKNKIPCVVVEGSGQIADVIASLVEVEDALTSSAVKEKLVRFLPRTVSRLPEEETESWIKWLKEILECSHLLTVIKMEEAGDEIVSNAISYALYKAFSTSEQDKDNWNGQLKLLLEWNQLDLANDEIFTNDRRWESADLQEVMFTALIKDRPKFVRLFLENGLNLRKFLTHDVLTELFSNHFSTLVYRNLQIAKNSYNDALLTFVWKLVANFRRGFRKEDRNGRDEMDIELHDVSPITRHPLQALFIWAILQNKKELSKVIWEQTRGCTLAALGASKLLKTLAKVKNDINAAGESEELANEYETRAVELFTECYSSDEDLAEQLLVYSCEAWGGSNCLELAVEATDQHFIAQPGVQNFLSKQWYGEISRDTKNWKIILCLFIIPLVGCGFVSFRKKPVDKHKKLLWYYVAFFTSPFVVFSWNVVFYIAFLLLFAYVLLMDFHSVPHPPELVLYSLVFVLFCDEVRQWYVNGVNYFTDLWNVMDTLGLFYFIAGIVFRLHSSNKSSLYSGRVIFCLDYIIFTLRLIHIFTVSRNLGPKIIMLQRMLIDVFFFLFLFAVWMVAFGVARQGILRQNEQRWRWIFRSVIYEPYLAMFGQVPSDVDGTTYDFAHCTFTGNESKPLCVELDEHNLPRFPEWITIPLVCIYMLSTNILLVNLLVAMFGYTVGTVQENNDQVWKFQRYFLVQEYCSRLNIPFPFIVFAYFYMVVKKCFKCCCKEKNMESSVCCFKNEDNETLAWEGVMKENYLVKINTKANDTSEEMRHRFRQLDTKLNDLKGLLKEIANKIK

| Structure (SMILES) | IC50 [µM] |
| --- | --- |
| O=C(N[C@@H](c1ccc(OC(F)(F)F)c(F)c1)c1ncccc1Br)c1ccc2oc(=O)[nH]c2c1 [Example 384, (S)-N-((3-bromopyridin-2-yl)(3-fluoro-4-(trifluoromethoxy)phenyl)methyl)-2-oxo-2,3-dihydrobenzo[d]oxazole-5-carboxamide] | 0.0058 |
| O=C(N[C@@H](c1ccc(OC(F)(F)F)c(F)c1)c1ncccc1F)c1ccc2oc(=O)[nH]c2n1 [Example 425, (S)—N-((3-Fluoro-4-(trifluoromethoxy)phenyl)(3-fluoropyridin-2-yl)methyl)-2-oxo-2,3-dihydrooxazolo[4,5-b]pyridine-5-carboxamide] | 0.0105 |
| O=C(N[C@@H](c1cc(F)cc(F)c1)c1ncccc1F)c1ccc(=O)[nH]c1 [Example 329, (S)-N-((3,5-difluorophenyl)(3-fluoropyridin-2-yl)methyl)-6-oxo-1,6-dihydropyridine-3-carboxamide] | 0.841 |
| O=C(N[C@@H](c1ccc(Cl)c(F)c1)c1ncccc1F)c1ccc(=O)[nH]c1 [Example 344, (S)-N-((4-chloro-3-fluorophenyl)(3-fluoropyridin-2-yl)methyl)-6-oxo-1,6-dihydropyridine-3-carboxamide] | 0.0451 |
| O=C(N[C@@H](c1ccc(C(F)(F)F)cc1)c1ncccc1C(F)(F)F)c1ccc(=O)[nH]n1 [Example 150, (S)-6-oxo-N-((4-(trifluoromethyl)phenyl)(3-(trifluoromethyl)pyridin-2-yl)methyl)-1,6-dihydropyridazine-3-carboxamide] | 0.178 |
| O=C(CCc1c[nH]cn1)N[C@@H](c1ccc(C(F)(F)F)cc1)c1ncccc1C(F)(F)F [Example 155, (S)-3-(1H-imidazol-4-yl)-N-((4-(trifluoromethyl)phenyl)(3-(trifluoromethyl)pyridin-2-yl)methyl)propanamide 2,2,2-trifluoroacetate] | 1.44 |
| O=C(N[C@@H](c1ccc(C(F)(F)F)cc1)c1ncccc1F)c1ccc2c(O)ccnc2c1 [Example 105, (S)-N-((3-fluoropyridin-2-yl)(4-(trifluoromethyl)phenyl)methyl)-4-hydroxyquinoline-7-carboxamide 2,2,2-trifluoroacetate] | 0.0108 |
| Cc1cc(C)cc([C@H](NC(=O)c2ccc(=O)[nH]c2)c2ncccc2F)c1 [Example 324, (S)-N-((3,5-dimethylphenyl)(3-fluoropyridin-2-yl)methyl)-6-oxo-1,6-dihydropyridine-3-carboxamide] | 1.05 |
| O=C(N[C@@H](c1ccc(C(F)(F)F)c(F)c1)c1ncccc1C(F)(F)F)c1ccc2cccnc2n1 [Example 129, (S)-N-((3-fluoro-4-(trifluoromethyl)phenyl)(3-(trifluoromethyl)pyridin-2-yl)methyl)-1,8-naphthyridine-2-carboxamide 2,2,2-trifluoroacetate] | 0.114 |
| O=C(N[C@@H](c1ccc(C(F)(F)F)cc1)c1ncccc1C(F)(F)F)c1ccc2c(c1)NCCC2 [Example 274, (S)—N-((4-(Trifluoromethyl)phenyl)(3-(trifluoromethyl)pyridin-2-yl)methyl)-1,2,3,4-tetrahydroquinoline-7-carboxamide] | 0.198 |
| O=C(Cc1ccccc1OC(F)(F)F)N[C@@H](c1ccc(C(F)(F)F)cc1)c1ncccc1C(F)(F)F [Example 164] | 0.294 |
| O=C(N[C@@H](c1ccc(C(F)(F)F)cc1)c1ncccc1C(F)(F)F)[C@H]1CC[C@@H](CO)CC1 [Example 241, (1s,4R)-4-(hydroxymethyl)-N-((S)-(4-(trifluoromethyl)phenyl)(3-(trifluoromethyl)pyridin-2-yl)methyl)cyclohexanecarboxamide] | 0.59 |
| O=C(N[C@@H](c1ccc(C(F)(F)F)c(F)c1)c1ncccc1C(F)(F)F)c1ccc2nccnc2c1 [Example 108, (S)-N-((3-fluoro-4-(trifluoromethyl)phenyl)(3-(trifluoromethyl)pyridin-2-yl)methyl)quinoxaline-6-carboxamide] | 0.0241 |
| COC(=O)c1ccc(C(=O)N[C@@H](c2ccc(OC(F)(F)F)c(F)c2)c2ncccc2F)nc1 [Example 398, (S)-methyl 6-(((3-fluoro-4-(trifluoromethoxy)phenyl)(3-fluoropyridin-2-yl)methyl)carbamoyl)nicotinate] | 0.189 |
| CC(C)(C)OC(=O)N1CCCC(C(=O)N[C@@H](c2ccc(C(F)(F)F)cc2)c2ncccc2C(F)(F)F)C1 (stereo partly drawn) [Example 142, tert-butyl 3-(((S)-(4-(trifluoromethyl)phenyl)(3-(trifluoromethyl)pyridin-2-yl)methyl)carbamoyl)piperidine-1-carboxylate] | 0.144 |

Other lines, results leading:

| IC50 [µM] | Structure (SMILES) |
| --- | --- |
| 0.0401 | Cc1ccc(C(=O)N[C@@H](c2ccc(C(F)(F)F)cc2)c2ncccc2F)cn1 [Example 52, (S)-N-((3-fluoropyridin-2-yl)(4-(trifluoromethyl)phenyl)methyl)-6-methylnicotinamide] |
| 0.0278 | O=C(N[C@@H](c1ccc(C(F)(F)F)cc1)c1ncccc1C(F)(F)F)c1ccc2nnnn2c1 [Example 311, (S)-N-((4-(trifluoromethyl)phenyl)(3-(trifluoromethyl)pyridin-2-yl)methyl)tetrazolo[1,5-a]pyridine-6-carboxamide] |
| 0.107 | O=C(N[C@@H](c1ccc(C(F)(F)F)cc1)c1ncccc1C(F)(F)F)c1ccc(I)cc1 [Example 122, (S)-4-iodo-N-((4-(trifluoromethyl)phenyl)(3-(trifluoromethyl)pyridin-2-yl)methyl)benzamide] |
| 0.255 | COc1ccc([C@H](NC(=O)c2ccc(=O)[nH]c2)c2ncccc2F)cc1 [Example 342, (S)-N-((3-fluoropyridin-2-yl)(4-methoxyphenyl)methyl)-6-oxo-1,6-dihydropyridine-3-carboxamide] |
| 0.0503 | Cn1cc(C(=O)N[C@@H](c2ccc(OC(F)(F)F)cc2)c2ccccn2)ccc1=O [Example 378, (S)-1-methyl-6-oxo-N-(pyridin-2-yl(4-(trifluoromethoxy)phenyl)methyl)-1,6-dihydropyridine-3-carboxamide] |
| 2.66 | O=C(O)Cn1cc(C(=O)N[C@@H](c2ccc(C(F)(F)F)cc2)c2ncccc2F)ccc1=O [Example 429, (S)-2-(5-(((3-Fluoropyridin-2-yl)(4-(trifluoromethyl)phenyl)methyl)carbamoyl)-2-oxopyridin-1(2H)-yl)acetic Acid] |
| 0.0806 | COC(=O)c1cccc(C(=O)N[C@@H](c2ccc(C(F)(F)F)cc2)c2ncccc2C(F)(F)F)c1 [Example 189, (S)-methyl 3-(((4-(trifluoromethyl)phenyl)(3-(trifluoromethyl)pyridin-2-yl)methyl)carbamoyl)benzoate] |
| 0.0181 | COc1ccc(C(=O)N[C@@H](c2ccc(C(F)(F)F)cc2)c2ncccc2F)cc1 [Example 172, (S)-N-((3-fluoropyridin-2-yl)(4-(trifluoromethyl)phenyl)methyl)-4-methoxybenzamide] |
| 0.0066 | Cn1cnc2ccc(C(=O)N[C@@H](c3ccc(C(F)(F)F)cc3)c3ncccc3F)cc21 [Example 395, (S)-N-((3-fluoropyridin-2-yl)(4-(trifluoromethyl)phenyl)methyl)-1-methyl-1H-benzo[d]imidazole-6-carboxamide] |
| 0.0231 | O=C(N[C@@H](c1ccc(OC(F)(F)F)cc1)c1ncccc1F)c1ccc2[nH]c(=O)oc2c1 [Example 80, (S)-N-((3-fluoropyridin-2-yl)(4-(trifluoromethoxy)phenyl)methyl)-2-oxo-2,3-dihydrobenzo[d]oxazole-6-carboxamide] |
